Assay results as given in patent publication US20240108684A1, “DOSING REGIMENS FOR TREATMENT OF FUNGAL INFECTIONS” (priority 2016, published 2024).
Where two headings read alike, the source gives them in different places. *1 amine or outer side, *2 acyl side, *3 side chain or, on linkers, in order; H or OH if unused. Where a SMILES comes first, the peptide text is derived from it. Bridges are numbered along the chain shown (N, C = ends). [ ]: non-standard residue; d: D form. The star is where a group is joined. Orn(4R-OH,5R-OCH2CH2NMe3+) = C[N+](C)(C)CCO[C@@H](N[*:3])[C@H](O)C[C@H](N[*:1])C(=O)[*:2]; pTerphenylCO(4''-OnC5H11) = CCCCCOc1ccc(-c2ccc(-c3ccc(C(=O)*)cc3)cc2)cc1; hTyr(3S-OH,4S-OH) = N[C@H](C(=O)O)[C@H](O)[C@@H](O)c1ccc(O)cc1; Pro(3S-OH,4S-Me) = C[C@H]1CN[C@H](C(=O)O)[C@H]1O; Hyp = O=C(O)[C@@H]1C[C@@H](O)CN1

Columns and labels:
[1] = system: Candida albicans; assay: Nonclinical studies of Candida albicans infections in mice (PK-PD target); assay type: in vivo
Protocol: (§1) Monte Carlo simulations were conducted to assess the probability of PK-pharmacodynamic (PD) target attainment using a variety of exploratory dosing regimens. Two dosing regimens were selected for further investigation (Table 5). […] Nonclinical studies of Candida albicans infections in mice have shown that a CD101 fAUC0-168:MIC ratio of 10 has been associated with a 2-log reduction in fungal burden in infected kidneys. This value of 10 was therefore chosen as the PK-PD target of interest for the Monte Carlo simulations.

[2] = system: glabrata; conditions: Sentry 2014; compared with MIC of 0.5 mg/L; cited from earlier work
[3] = system: C. glabrata; assay: Neutropenic murine disseminated candidiasis model, PK/PD; conditions: for 1 log kill dose / Static Dose: single IP dose, 7 days
[4] = system: C. albicans; assay: Mutant prevention concentration (MPC); assay type: cell-based, Candida albicans
From the text: As used herein, the term “mutant prevention concentration” or “MPC” refers to the concentration of a drug sufficient to suppress the development of all but very rare spontaneous mutants. The range of drug concentrations between the MIC and MPC represents a mutant selection window wherein de novo mutants are most likely to occur. Therapeutic regimens that maximize the duration of drug concentrations in excess of the MPC thereby minimize the potential for resistance development during the course of therapy.
(§2) Selection of resistance strains in vivo predominantly occurs over a range of drug concentrations falling between the MIC and MPC values. Dosing paradigms that result in plasma drug concentrations in excess of the MPC are therefore more desirable and effective in preventing the development of de novo mutants during the course of therapy (see, e.g., Drlica et al., J. Antimicrob. Chemother. 52:11-17, 2003). Currently approved treatment regimens for caspofungin, micafungin, and anidulafungin involve once-daily dosing at levels such that the Cmax is unlikely to be equivalent to or exceed the MPC at any point during treatment.

[5] = Solubility of test articles in vehicle, visual observation; conditions: 10% DMSO/1% Tween 20 in 0.9% NaCl; 0.3, 1 and 3 mg/mL
Protocol: Amphotericin B and fluconazole were in powder form. Amphotericin B was dissolved in 0.9% NaCl. Fluconazole was dissolved in water (WFI: water for injection).

[6] = system: C. albicans (R357); assay: Disseminated infection model with C. albicans R357, kidney fungal counts; assay type: in vivo, ICR mice
[7] = system: C.albicans (Strain R303); assay: Dose-fractionation study in neutropenic mice, kidney fungal burden; conditions: 2 mg/kg as a single dose IP, at 168 hours
Protocol: Dose-Fractionation Study. Male or female ICR mice (5 per regimen and observation time) weighing 22±2 g were rendered neutropenic for the study by injecting the mice with cyclophosphamide treatment four days (−Day 4) (150 mg/kg IP) and one day (−Day 1) prior to infection at 100 mg/kg IP. Neutropenia was sustained for the duration of the study with cyclophosphamide doses (100 mg/kg IP) every 48 hours on days +1, +3, +5 and +7 after infection.
Mice were sacrificed 168 hours (7 days) following the start of treatment. Control arm mice were sacrificed 0, 24, and 48 hours post administration of vehicle. Paired kidneys are aseptically harvested, homogenized, and plated for colony counts to determine the fungal burden (CFU/g).

[8] = Single ascending dose IV study in healthy adult subjects (safety, PK); assay type: in vivo, human; conditions: for AUC(0-t): read-out: AUC0-168; for concentration at 144 h: read-out: C144
Protocol: In a first study, CD101 was administered by IV injection to healthy adult subjects. In this study, subjects in 4 cohorts of 8 subjects (6 active, 2 placebo) each were randomized to receive single IV doses of CD101 or placebo (normal saline) infused over 60 (±5) minutes. Dose levels of CD101 assessed follow an ascending single-dose regimen (50, 100, 200, or 400 mg).
Pharmacokinetics were first determined by analyzing plasma and urine samples for concentration of CD101 obtained from subjects who received CD101 in each cohort at various time points after administration of the single dose of the study drug.

[9] = system: C. albicans; assay: Neutropenic murine disseminated candidiasis model, PK/PD; conditions: for 1 log kill dose / Static Dose: single IP dose
[10] = system: C. glabrata; assay: MIC by CLSI standards; conditions: Nakaseomyces glabratus
[11] = Modeling of CD101 total plasma concentrations versus MPC; conditions: modeling based on in vivo PK data
From the text: as §2

[12] = PK model, free-drug plasma concentration-time profiles of fractionated regimens; design: species or system mice
Protocol: Pharmacokinetic-Pharmacodynamic Analyses. Using the data collected from the PK study, a PK model was developed in S-ADAPT. Using the developed PK model, concentration-time profiles and AUC0-168h values were computed for each dosing regimen administered in the dose-fractionation study. […] Relationships between the change in log10 CFU from start of therapy and AUC0-168h were explored.

[13] = system: C. albicans; conditions: Sentry 2014; compared with MIC of 0.5 mg/L; cited from earlier work
[14] = Plasma protein binding assumed for the simulations; assay type: in vitro ADME; conditions: assumed for the Monte Carlo simulations
Protocol: as §1

[15] = human, plasma, 50 mg 1-hour IV infusion
[16] = human, plasma, 100 mg 1-hour IV infusion
[17] = human, plasma, 200 mg 1-hour IV infusion
[18] = human, plasma, 400 mg 1-hour IV infusion
[19] = single IV 50, 100, 200 or 400 mg

SMILES: CCCCCOc1ccc(-c2ccc(-c3ccc(C(=O)N[C@H]4C[C@@H](O)[C@@H](OCC[N+](C)(C)C)NC(=O)[C@@H]5[C@@H](O)[C@@H](C)CN5C(=O)[C@H]([C@@H](C)O)NC(=O)[C@H]([C@H](O)[C@@H](O)c5ccc(O)cc5)NC(=O)[C@@H]5C[C@@H](O)CN5C(=O)[C@H]([C@@H](C)O)NC4=O)cc3)cc2)cc1 [CD101] ({pTerphenylCO(4''-OnC5H11)}-[Orn(4R-OH,5R-OCH2CH2NMe3+)]T[Hyp][hTyr(3S-OH,4S-OH)]T[Pro(3S-OH,4S-Me)]; lactam 1-C)
- fAUC0-168:MIC ratio associated with a 2-log reduction in fungal burden in infected kidneys [1]: 10
- MIC90 [2]: 0.06 µg/mL
- 1 log kill Ave 24 h AUC/MIC ([3]; C. glabrata 5592): 114
- Stasis Ave 24 h AUC/MIC ([3]; C. glabrata 5592): 21.7
- 1 log kill dose ([3]; C. glabrata 5592): 0.51 mg/kg
- Static Dose ([3]; C. glabrata 5592): 0.03 mg/kg
- 1 log kill Ave 24 h AUC/MIC ([3]; C. glabrata 10956): 301
- Stasis Ave 24 h AUC/MIC ([3]; C. glabrata 10956): 120
- 1 log kill dose ([3]; C. glabrata 10956): 17.3 mg/kg
- Static Dose ([3]; C. glabrata 10956): 6.29 mg/kg
- 1 log kill Ave 24 h AUC/MIC ([3]; C. glabrata 35315): 105
- Stasis Ave 24 h AUC/MIC ([3]; C. glabrata 35315): 17.9
- 1 log kill dose ([3]; C. glabrata 35315): 2.39 mg/kg
- Static Dose ([3]; C. glabrata 35315): 0.34 mg/kg
- MPC [4]: 16 µg/mL
- Solubility [5]: S
- Antimicrobial effect versus vehicle (kidney fungal counts) ([6]; 3, 10, and 30 mg/kg IP once, 48 and 72 hr after infection): Significant antimicrobial effects (P<0.05)
- Reduction in fungal counts ([6]; all CD101 groups (3, 10, 30 mg/kg IP), 48 and 72 hr): two log reduction
- CFU reduction from baseline [7]: greater than 2 log10 CFU
- Cmax ([8]; 400 mg 1-hour IV infusion): 22700 ng/mL
- Dose proportionality ([8]; 50-400 mg single IV): AUC and Cmax increased in a dose proportional manner
- Fraction of dose excreted in urine ([8]; all dose levels): < 1%
- half-life ([8]; human, plasma, intravenous, incorporating data from later collection times, read-out: terminal t1/2): 127 to 146 h
- half-life ([8]; human, plasma, intravenous, through the first week of plasma collection, read-out: t1/2 (converted)): > 80 h
- Vd ([8]; human, plasma, intravenous, 50-400 mg, read-out: Volume of distribution (Vz and Vss)): 33 to 48 L
- clearance ([8]; human, plasma, intravenous, across the CD101 doses 50-400 mg, read-out: Total body clearance): ~4 mL/min
- Tmax ([8]; human, plasma, intravenous, after start of 1-hour infusion, all doses): ~1 h
- half-life ([8]; human, plasma, iv, 50 mg, 50 mg 1-hour IV infusion, read-out: t1/2 (converted)): 86 h
- half-life ([8]; human, plasma, iv, 100 mg, 100 mg 1-hour IV infusion, read-out: t1/2 (converted)): 92 h
- half-life ([8]; human, plasma, iv, 200 mg, 200 mg 1-hour IV infusion, read-out: t1/2 (converted)): 91 h
- half-life ([8]; human, plasma, iv, 400 mg, 400 mg 1-hour IV infusion, read-out: t1/2 (converted)): 84 h
- AUC(0-t) [8, 15]: 145 µg·h/mL
- concentration at 144 h [8, 15]: 481 ng/mL
- Cmax ([8]; human, plasma, 50 mg 1-hour IV infusion, read-out: Cmax): 2760 ng/mL
- AUC(0-t) [8, 16]: 254 µg·h/mL
- concentration at 144 h [8, 16]: 854 ng/mL
- Cmax ([8]; human, plasma, 100 mg 1-hour IV infusion, read-out: Cmax): 4840 ng/mL
- AUC(0-t) [8, 17]: 592 µg·h/mL
- concentration at 144 h [8, 17]: 2010 ng/mL
- Cmax ([8]; human, plasma, 200 mg 1-hour IV infusion, read-out: Cmax): 10900 ng/mL
- AUC(0-t) [8, 18]: 1160 µg·h/mL
- concentration at 144 h [8, 18]: 3830 ng/mL
- Drug-related AEs from laboratory abnormalities [8, 19]: no drug-related AEs resulting from clinically significant hematology or clinical chemistry laboratory abnormalities at any dose
- ECG, vital signs, physical exam [8, 19]: no safety issues related to electrocardiograms (ECGs), vital signs, or physical exam findings
- Serious and severe adverse events [8, 19]: no serious adverse events (SAEs), severe adverse events (AEs), or dose-response relationships for overall AEs
- Severity and resolution of AEs [8, 19]: majority of AEs were mild, and all AEs completely resolved by the end of the study
- Safety and tolerability ([8]; single dose up to 400 mg): safe and well tolerated
- 1 log kill Ave 24 h AUC/MIC ([9]; C. albicans 98-17): 490
- Stasis Ave 24 h AUC/MIC ([9]; C. albicans 98-17): 274
- 1 log kill dose ([9]; C. albicans 98-17, 7 days): 2.73 mg/kg
- Static Dose ([9]; C. albicans 98-17, 7 days): 1.34 mg/kg
- 1 log kill Ave 24 h AUC/MIC ([9]; C. albicans 98-210): 1574
- Stasis Ave 24 h AUC/MIC ([9]; C. albicans 98-210): 868
- 1 log kill dose ([9]; C. albicans 98-210, 7 days): 2.28 mg/kg
- Static Dose ([9]; C. albicans 98-210, 7 days): 1.06 mg/kg
- 1 log kill Ave 24 h AUC/MIC ([9]; C. albicans 580): 1429
- Stasis Ave 24 h AUC/MIC ([9]; C. albicans 580): 948
- 1 log kill dose ([9]; C. albicans 580, 7 days): 2.03 mg/kg
- Static Dose ([9]; C. albicans 580, 7 days): 1.20 mg/kg
- 1 log kill Ave 24 h AUC/MIC ([9]; C. albicans K-1): 6435
- Stasis Ave 24 h AUC/MIC ([9]; C. albicans K-1): 3426
- 1 log kill dose ([9]; C. albicans K-1, 7 days): 5.26 mg/kg
- Static Dose ([9]; C. albicans K-1, 7 days): 2.52 mg/kg
- Maximal kill ([9]; C. albicans and C. glabrata strains, 0.016-64 mg/kg once IP, 7 days): over 2 log10 CFU/kidney
- MIC ([10]; C. glabrata 5592): 0.06 µg/mL
- MIC ([10]; C. glabrata 10956): 0.5 µg/mL
- MIC ([10]; C. glabrata 35315): 0.25 µg/mL
- MIC ([10]; read-out: MICs, 3 C. glabrata strains): 0.06 to 0.5 µg/mL
- IV dose sufficient to generate concentrations in excess of 16 μg/ml (MPC) [11]: ≥ 150 mg
- Time free-drug plasma concentrations of single dose remain above the daily regimen ([12]; 2 mg/kg total dose): 48 h
- Time free-drug plasma concentrations of single dose remain above the twice weekly regimen ([12]; 2 mg/kg total dose): 84 h
- Free-drug plasma AUC0≥ ([12]; CD101 2 mg/kg as a single dose): 0.0654 mgh/L
- Free-drug plasma AUC0≥ ([12]; CD101 2 mg/kg total, daily regimen): 0.00948 mgh/L
- Free-drug plasma AUC0≥ ([12]; CD101 2 mg/kg total, twice weekly): 0.0303 mgh/L
- MIC90 [13]: 0.06 µg/mL
- Plasma protein binding [14]: 99.1%
